C[C@]12C=CC(=O)C=C1CC[C@@H]1[C@@H]2[C@@H](O)C[C@@]2(C)[C@H]1CC[C@]2(O)C(=O)CO
solubility (mole fraction) (in DMF, 293.2 K): 0.00818 | solubility (mole fraction) (in DMF, 298.2 K): 0.00869 | solubility (mole fraction) (in DMF, 303.2 K): 0.00943 | solubility (mole fraction) (in DMF, 308.2 K): 0.0101 | solubility (mole fraction) (in DMF, 313.2 K): 0.0108 | solubility (mole fraction) (in DMF, 318.2 K): 0.0116 | solubility (mole fraction) (in DMF, 323.2 K): 0.0125 | solubility (mole fraction) (in DMF, 328.2 K): 0.0141 | solubility (mole fraction) (in NMP, 293.2 K): 0.00465 | solubility (mole fraction) (in NMP, 298.2 K): 0.00525 | solubility (mole fraction) (in NMP, 303.2 K): 0.0061 | solubility (mole fraction) (in NMP, 308.2 K): 0.00688 | solubility (mole fraction) (in NMP, 313.2 K): 0.00784 | solubility (mole fraction) (in NMP, 318.2 K): 0.00881 | solubility (mole fraction) (in NMP, 323.2 K): 0.00998 | solubility (mole fraction) (in NMP, 328.2 K): 0.0114 | solubility (mole fraction) (in acetonitrile, 293.2 K): 0.00219 | solubility (mole fraction) (in acetonitrile, 298.2 K): 0.00236 | solubility (mole fraction) (in acetonitrile, 303.2 K): 0.00255 | solubility (mole fraction) (in acetonitrile, 308.2 K): 0.0028 | solubility (mole fraction) (in acetonitrile, 313.2 K): 0.00305 | solubility (mole fraction) (in acetonitrile, 318.2 K): 0.00334 | solubility (mole fraction) (in acetonitrile, 323.2 K): 0.00364 | solubility (mole fraction) (in acetonitrile, 328.2 K): 0.00407 | solubility (mole fraction) (in n-dodecane, 293.2 K): 1.44e-05 | solubility (mole fraction) (in n-dodecane, 298.2 K): 1.64e-05 | solubility (mole fraction) (in n-dodecane, 303.2 K): 1.87e-05 | solubility (mole fraction) (in n-dodecane, 308.2 K): 2.16e-05 | solubility (mole fraction) (in n-dodecane, 313.2 K): 2.45e-05 | solubility (mole fraction) (in n-dodecane, 318.2 K): 2.79e-05 | solubility (mole fraction) (in n-dodecane, 323.2 K): 3.28e-05 | solubility (mole fraction) (in n-dodecane, 328.2 K): 3.82e-05 | solubility (mole fraction) (in n-hexadecane, 293.2 K): 2.15e-05 | solubility (mole fraction) (in n-hexadecane, 298.2 K): 2.35e-05 | solubility (mole fraction) (in n-hexadecane, 303.2 K): 2.61e-05 | solubility (mole fraction) (in n-hexadecane, 308.2 K): 3.01e-05 | solubility (mole fraction) (in n-hexadecane, 313.2 K): 3.4e-05 | solubility (mole fraction) (in n-hexadecane, 318.2 K): 3.88e-05 | solubility (mole fraction) (in n-hexadecane, 323.2 K): 4.5e-05 | solubility (mole fraction) (in n-hexadecane, 328.2 K): 5.41e-05 | solubility (mole fraction) (in n-nonanol, 293.2 K): 0.000507 | solubility (mole fraction) (in n-nonanol, 298.2 K): 0.000643 | solubility (mole fraction) (in n-nonanol, 303.2 K): 0.000833 | solubility (mole fraction) (in n-nonanol, 308.2 K): 0.000999 | solubility (mole fraction) (in n-nonanol, 313.2 K): 0.00126 | solubility (mole fraction) (in n-nonanol, 318.2 K): 0.00151 | solubility (mole fraction) (in n-nonanol, 323.2 K): 0.00179 | solubility (mole fraction) (in n-nonanol, 328.2 K): 0.00215 | solubility (mole fraction) (in n-octanol, 293.2 K): 0.000316 | solubility (mole fraction) (in n-octanol, 298.2 K): 0.000419 | solubility (mole fraction) (in n-octanol, 303.2 K): 0.000568 | solubility (mole fraction) (in n-octanol, 308.2 K): 0.000712 | solubility (mole fraction) (in n-octanol, 313.2 K): 0.000913 | solubility (mole fraction) (in n-octanol, 318.2 K): 0.00114 | solubility (mole fraction) (in n-octanol, 323.2 K): 0.00141 | solubility (mole fraction) (in n-octanol, 328.2 K): 0.0018 | solubility (mole fraction) (in n-pentanol, 293.2 K): 0.000283 | solubility (mole fraction) (in n-pentanol, 298.2 K): 0.000358 | solubility (mole fraction) (in n-pentanol, 303.2 K): 0.000449 | solubility (mole fraction) (in n-pentanol, 308.2 K): 0.000559 | solubility (mole fraction) (in n-pentanol, 313.2 K): 0.000699 | solubility (mole fraction) (in n-pentanol, 318.2 K): 0.000881 | solubility (mole fraction) (in n-pentanol, 323.2 K): 0.0011 | solubility (mole fraction) (in n-pentanol, 328.2 K): 0.00139 | solubility (mole fraction) (in sec-butanol, 293.2 K): 0.000248 | solubility (mole fraction) (in sec-butanol, 298.2 K): 0.000294 | solubility (mole fraction) (in sec-butanol, 303.2 K): 0.000362 | solubility (mole fraction) (in sec-butanol, 308.2 K): 0.000444 | solubility (mole fraction) (in sec-butanol, 313.2 K): 0.00053 | solubility (mole fraction) (in sec-butanol, 318.2 K): 0.000628 | solubility (mole fraction) (in sec-butanol, 323.2 K): 0.00075 | solubility (mole fraction) (in sec-butanol, 328.2 K): 0.000905 | solubility (mole fraction) (in water, 293.2 K): 1.05e-05 | solubility (mole fraction) (in water, 298.2 K): 1.1e-05 | solubility (mole fraction) (in water, 303.2 K): 1.25e-05 | solubility (mole fraction) (in water, 308.2 K): 1.4e-05 | solubility (mole fraction) (in water, 313.2 K): 1.6e-05 | solubility (mole fraction) (in water, 318.2 K): 1.8e-05 | solubility (mole fraction) (in water, 323.2 K): 2e-05 | solubility (mole fraction) (in water, 328.2 K): 2.6e-05

From BigSolDB 2.1
